Assay results as given in US8343513B2, “Prevention of molecular weight reduction of the polymer, impurity formation and gelling in polymer compositions” (Oakwood Laboratories, LLC, priority 2003, dated 2013).
Where a SMILES comes first, the peptide text is derived from it. [ ]: non-standard residue; d: D form. The star is where a group is joined. dPhe(4-Cl) = N[C@H](Cc1ccc(Cl)cc1)C(=O)O; Nicotinoyl(6-NH2) = Nc1ccc(C(=O)*)cn1; d2Nal = N[C@H](Cc1ccc2ccccc2c1)C(=O)O; Lys(iPr) = CC(C)NCCCC[C@H](N)C(=O)O; d3Pal = N[C@H](Cc1cccnc1)C(=O)O; Picolinoyl = O=C(c1ccccn1)*; dOrn = NCCC[C@@H](N)C(=O)O

Assays:
[1] = Orntide solubility and gelling in solvents and dispersed phase; type: physicochemical
Excerpt: However, most of the GnRH analogs are soluble only at certain concentrations (at very low concentrations of antagonists and moderate concentrations of agonists) beyond which these analogs pose solubility and gelling problems when dissolved in these solvents.
The stability was followed for a day.

[2] = Screening of octreotide related substance formation with polymers and acid additives, 40° C. 24 and 48 hour; type: physicochemical; conditions: octreotide with polymer in DCM/methanol
[3] = cited from earlier work

Row | SMILES | related substances formation in words [2] | further results
1 | CC(=O)N[C@H](Cc1ccc2ccccc2c1)C(=O)N[C@H](Cc1ccc(Cl)cc1)C(=O)N[C@H](Cc1cccnc1)C(=O)N[C@@H](CO)C(=O)N[C@@H](CCCCNC(=O)c1ccccn1)C(=O)N[C@H](CCCNC(=O)c1ccc(N)nc1)C(=O)N[C@@H](CC(C)C)C(=O)N[C@@H](CCCCNC(C)C)C(=O)N1CCC[C@H]1C(=O)N[C@H](C)C(N)=O [PPL-ORN-9902] (Ac-[d2Nal][dPhe(4-Cl)][d3Pal]SK(Picolinoyl)[dOrn](Nicotinoyl(6-NH2))L[Lys(iPr)]P[dA]-NH2) | – | time to gel ([1]; 84 mg orntide acetate, 100 mg glacial acetic acid, 130 mg methanol, 1.28 g methylene chloride, warmed to 40° C.): ≤ 30 min
2 | CC(=O)O [glacial acetic acid] | less efficient than lactic and glycolic acids | –
3 | O=C(O)C(O)CO (stereo not shown) [glyceric acid] | – | pKa [3]: 3.25
4 | O=C(O)CO [glycolic acid] | prevented the related substances formation | –
5 | CC(O)C(=O)O (stereo not shown) [lactic acid] | reduced the related substances and made comparable to the control | –
6 | CC(=O)N[C@H](Cc1ccc2ccccc2c1)C(=O)N[C@H](Cc1ccc(Cl)cc1)C(=O)N[C@H](Cc1cccnc1)C(=O)N[C@@H](CO)C(=O)N[C@@H](CCCCNC(=O)c1ccccn1)C(=O)N[C@H](CCCNC(=O)c1ccc(N)nc1)C(=O)N[C@@H](CC(C)C)C(=O)N[C@@H](CCCCNC(C)C)C(=O)N1CCC[C@H]1C(=O)N[C@H](C)C(N)=O [orntide] (Ac-[d2Nal][dPhe(4-Cl)][d3Pal]SK(Picolinoyl)[dOrn](Nicotinoyl(6-NH2))L[Lys(iPr)]P[dA]-NH2) | – | solubility ([1]; aqueous media, even at a pH lower than 5): < 5000 µg/mL
7 | CCCCCCCCCCCCCCCCCC(=O)O [stearic acid] | less efficient than lactic and glycolic acids | –
